Data: patent US4499082A, “α-Aminoboronic acid peptides” (E. I. Du Pont de Nemours and Company, priority 1983, dated 1985)
Each block holds one molecule with its values, some of them ahead of it.

What was measured:
Assay type in all cases: biochemical
[1] = target: Porcine pancreatic elastase (Sus scrofa, UniProt P00772); test: Inhibition of pancreatic elastase
Method: Porcine pancreatic elastase (9.8 U/mg.) was obtained from commercial sources. […] Reactions were initiated by addition of 0.5 μg of elastase in 0.020 mL of 0.020M sodium acetate buffer, pH 6.0, and hydrolysis of substrate was monitored spectrophotometrically at 405 nm at 25° C. Assay results are set forth in Table 4, below, expressed as percentages of activity of control mixtures to which no inhibitor was added: […]

porcine pepsin = porcine pepsin (Sus scrofa, UniProt P00791); test: Inhibition of pepsin; conditions: Conc. 5.0 × 10^-4 M
Method: Pepsin activity was assayed by a procedure substantially similar to that described by Rich, et al., Biochem. Pharmac. 29:2205 (1980). Substrate, […].2 trifluoroacetate, and porcine pepsin were obtained from commercial sources. Assay solutions, in a volume of 2.00 mL, contained 2.0×10^-4 M substrate in 0.040M sodium formate buffer, pH 4.0, and 0.050 mL of inhibitor solutions in dimethylsulfoxide. Assays were initiated by addition of 0.020 mL of pepsin (0.10 mg/mL), and hydrolysis of substrate was monitored by measuring the increase in absorbance at 310 nm on a spectrophotometer.

thermolysin = target: T1, thermolysin (Bacillus thermoproteolyticus, UniProt P00800); test: Inhibition of thermolysin; conditions: Conc. 5.0 × 10^-4 M
T1 construct: purchased
T1 sequence (P00800 233-548): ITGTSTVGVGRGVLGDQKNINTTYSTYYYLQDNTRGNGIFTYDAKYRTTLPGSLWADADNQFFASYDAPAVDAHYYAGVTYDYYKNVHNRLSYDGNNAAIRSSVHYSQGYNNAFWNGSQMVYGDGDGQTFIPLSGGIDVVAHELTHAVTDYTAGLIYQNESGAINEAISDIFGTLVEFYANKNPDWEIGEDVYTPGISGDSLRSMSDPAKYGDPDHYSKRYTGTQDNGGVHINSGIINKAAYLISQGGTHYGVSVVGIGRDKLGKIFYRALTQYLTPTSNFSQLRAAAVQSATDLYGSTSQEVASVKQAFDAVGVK
Method: The metalloenzyme thermolysin was assayed by a procedure substantially similar to that described by Feder et al., Biochemistry 9:2784 (1970). Substrate, furylacryloyl-glycyl-leucinamide, and thermolysin were obtained from commercial sources. Assay solutions consisted of furylacryloyl-glycyl-leucinamide (0.100 mL, 8.0×10^-3 M in N,N-dimethylformamide) and 1.90 mL of 0.50M Tris buffer, pH 7.5, containing 0.10M NaCl and 0.010M CaCl2. Either 0.100 mL of dimethylsulfoxide or 0.100 mL of dimethylsulfoxide containing inhibitor was added and the reaction was initiated by the addition of 0.020 mL of thermolysin (1.0 mg/mL). The rate of hydrolysis was monitored by measuring the decrease in absorbance at 345 nm.

neutrophil elastase = target: T2, neutrophil elastase (Homo sapiens, UniProt P08246); test: Inhibition of neutrophil elastase, additional peptide inhibitors preincubated in phosphate buffer (Table 3); design: Neutrophil elastase was prepared by the procedure described by Baugh. et al; from tissue
T2 sequence (P08246 30-267): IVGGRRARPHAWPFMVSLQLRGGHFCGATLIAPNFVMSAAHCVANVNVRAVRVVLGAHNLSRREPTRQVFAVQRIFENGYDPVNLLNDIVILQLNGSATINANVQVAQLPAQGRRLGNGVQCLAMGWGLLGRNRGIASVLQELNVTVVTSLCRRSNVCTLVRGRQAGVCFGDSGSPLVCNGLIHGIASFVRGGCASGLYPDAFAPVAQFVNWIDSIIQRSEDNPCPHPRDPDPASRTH
Method: Additional peptide inhibitors were evaluated by a procedure similar to that described above. Stock solutions of inhibitors (1.00 mM) were prepared in dimethylsulfoxide and compounds were diluted to 0.10 mM with […], pH 7.5, yielding the free boronic acid. After incubation for one hour at about 23°, inhibitors were added to assay solutions (2.00 mL) consisting of […] MeOSuc-Ala-AlaProVal-p-nitroanilide in 0.10M Hepes buffer, pH 7.5, containing 0.50M NaCl. Assays were initiated by addition of 0.50 μg neutrophil elastase. Control assays without inhibitor indicated an initial velocity of 0.0195 min^-1. The value "k" in Table 3, below, is an estimate of the first order rate constant for time-dependent inhibition, as described above for MeOSuc-AlaAlaPro-Boroval-OH (Table 1).

α-chymotrypsin = target: T3, α-chymotrypsin (Bos taurus, UniProt P00766); test: Titration of α-chymotrypsin
T3 construct: purchased
Method: In these experiments, α-chymotrypsin, obtained from commercial sources, was standardized by titration with various concentrations of MeOSuc-AlaAlaPro-Borophe-diethanolamine. In each case, enzyme was incubated with inhibitor for 5 minutes at 23°, in 0.01M Hepes buffer, pH 7.5, containing 0.50M NaCl and 10% dimethylsulfoxide. Aliquots were then removed and assayed for enzyme activity.

porcine pepsin, sequence (P00791 60-385): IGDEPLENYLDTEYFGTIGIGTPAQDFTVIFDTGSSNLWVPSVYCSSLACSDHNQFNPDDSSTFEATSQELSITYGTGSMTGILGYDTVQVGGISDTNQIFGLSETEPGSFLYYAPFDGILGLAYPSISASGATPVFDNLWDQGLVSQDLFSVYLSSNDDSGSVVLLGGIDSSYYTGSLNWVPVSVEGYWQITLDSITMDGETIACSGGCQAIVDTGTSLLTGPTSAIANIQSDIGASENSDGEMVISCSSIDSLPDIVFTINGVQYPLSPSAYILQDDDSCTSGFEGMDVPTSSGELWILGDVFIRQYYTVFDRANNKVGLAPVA
Porcine pancreatic elastase, sequence (P00772 27-266): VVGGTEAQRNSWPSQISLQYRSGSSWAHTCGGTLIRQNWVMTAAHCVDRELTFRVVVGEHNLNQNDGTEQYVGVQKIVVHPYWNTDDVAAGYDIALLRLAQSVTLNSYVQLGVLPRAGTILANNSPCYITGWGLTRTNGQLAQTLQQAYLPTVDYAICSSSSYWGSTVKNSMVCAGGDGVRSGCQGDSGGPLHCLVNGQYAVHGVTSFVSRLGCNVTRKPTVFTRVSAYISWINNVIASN

% Activity (α-chymotrypsin; α-chymotrypsin 3 μg/mL, inhibitor 25 nM): 68.2% | % Activity (α-chymotrypsin; α-chymotrypsin 3 μg/mL, inhibitor 50 nM): 52.3% | % Activity (α-chymotrypsin; α-chymotrypsin 3 μg/mL, inhibitor 75 nM): 31.8% | % Activity (α-chymotrypsin; α-chymotrypsin 3 μg/mL, inhibitor 100 nM): 18.2% | % Activity (α-chymotrypsin; α-chymotrypsin 15 μg/mL, inhibitor 50 nM): 93.8% | % Activity (α-chymotrypsin; α-chymotrypsin 15 μg/mL, inhibitor 100 nM): 80.4% | % Activity (α-chymotrypsin; α-chymotrypsin 15 μg/mL, inhibitor 200 nM): 65.1% | % Activity (α-chymotrypsin; α-chymotrypsin 15 μg/mL, inhibitor 300 nM): 47.9% | % Activity (α-chymotrypsin; α-chymotrypsin 15 μg/mL, inhibitor 400 nM): 31.6% | % Activity (α-chymotrypsin; α-chymotrypsin 15 μg/mL, inhibitor 500 nM): 15.3%
Compound: COC(=O)CCC(=O)NC(C)C(=O)NC(C)C(=O)N1CCCC1C(=O)NC(Cc1ccccc1)B1OCCNCCO1 (stereo not shown) [MeOSuc-AlaAlaPro-Borophe-diethanolamine]

% Initial Activity (neutrophil elastase; Conc. 1.0 × 10^-7 M): 61% | k, first order rate constant for time-dependent inhibition (neutrophil elastase; Conc. 1.0 × 10^-7 M): 0.20 min⁻¹
Compound: CC(C)C(NC(=O)C(CCC(=O)OCc1ccccc1)NC(=O)CNC(=O)C(Cc1ccccc1)NC(=O)OCc1ccccc1)B(O)O (stereo not shown) [Z--Phe--Gly--Glu(OBzl)--Boroval--OH]

% Initial Activity (neutrophil elastase; Conc. 2.0 × 10^-7 M): 62% | k, first order rate constant for time-dependent inhibition (neutrophil elastase; Conc. 2.0 × 10^-7 M): 0.26 min⁻¹
Compound: CC(C)CC(NC(=O)CNC(=O)C(Cc1ccccc1)NC(=O)OCc1ccccc1)C(=O)NC(B(O)O)C(C)C (stereo not shown) [Z--Phe--Gly--Leu--Boroval--OH]

% Initial Activity (neutrophil elastase; Conc. 2.0 × 10^-7 M): 55% | k, first order rate constant for time-dependent inhibition (neutrophil elastase; Conc. 2.0 × 10^-7 M): 0.37 min⁻¹
Compound: CC(C)C(NC(=O)C(CCCCNC(=O)OC(C)(C)C)NC(=O)CNC(=O)C(Cc1ccccc1)NC(=O)OCc1ccccc1)B(O)O (stereo not shown) [Z--Phe--Gly--Lys(Boc)--Boroval--OH]

% Initial Activity (neutrophil elastase; Conc. 2.5 × 10^-7 M): 67% | k, first order rate constant for time-dependent inhibition (neutrophil elastase; Conc. 2.5 × 10^-7 M): 0.28 min⁻¹
Compound: CC(C)C(NC(=O)C(CCCCN)NC(=O)CNC(=O)C(Cc1ccccc1)NC(=O)OCc1ccccc1)B(O)O (stereo not shown) [Z--Phe--Gly--Lys--Boroval--OH]

% Initial Activity (neutrophil elastase; Conc. 2.0 × 10^-7 M): 47% | k, first order rate constant for time-dependent inhibition (neutrophil elastase; Conc. 2.0 × 10^-7 M): 0.18 min⁻¹
Compound: CC(C)C(NC(=O)C(Cc1ccccc1)NC(=O)CNC(=O)C(Cc1ccccc1)NC(=O)OCc1ccccc1)B(O)O (stereo not shown) [Z--Phe--Gly--Phe--Boroval--OH]

% Initial Activity (neutrophil elastase; Conc. 1.25 × 10^-7 M): 66% | k, first order rate constant for time-dependent inhibition (neutrophil elastase; Conc. 1.25 × 10^-7 M): 0.17 min⁻¹
Compound: CC(C)C(NC(=O)C(COCc1ccccc1)NC(=O)CNC(=O)C(Cc1ccccc1)NC(=O)OCc1ccccc1)B(O)O (stereo not shown) [Z--Phe--Gly--Ser(OBzl)--Boroval--OH]

% Initial Activity (neutrophil elastase; Conc. 4.0 × 10^-6 M): 51%
Compound: CC(NC(=O)C1CCCN1C(=O)C(Cc1ccccc1)NC(=O)OCc1ccccc1)C(=O)NC(B(O)O)C(C)C (stereo not shown) [Z--Phe--Pro--Ala--Boroval--OH]

The next lines start with the molecule.

Compound: CC(NC(=O)C(C)NC(=O)OC(C)(C)C)B1OCCNCCO1 (stereo not drawn) [Boc--Ala--Boroala--diethanolamine, Boc-Ala-Boroala-diethanolamine]
Activity % of Control ([1]; inhibitor 5.0 × 10^5 nM, 1.0 min, time dependency not observed): 67 % of Control | % Activity (porcine pepsin): 85% | % Activity (thermolysin): 99%

Compound: CC(NC(=O)C(C)NC(=O)OC(C)(C)C)B1OC(C)(C)C(C)(C)O1 (stereo not drawn) [Boc--Ala--Boroala--pinacol, Boc-Ala-Boroala-pinacol]
% Activity (porcine pepsin): 90% | % Activity (thermolysin): 102%

Compound: CC(C)C(NC(=O)C1CCCN1C(=O)C(Cc1ccccc1)NC(=O)OC(C)(C)C)B(O)O [Boc--D-Phe--Pro--Boroval--OH]
% Initial Activity (neutrophil elastase; Conc. 2.0 × 10^-7 M): 54% | k, first order rate constant for time-dependent inhibition (neutrophil elastase; Conc. 2.0 × 10^-7 M): 0.35 min⁻¹

Compound: CC(C)CC(NC(=O)CNC(=O)OC(C)(C)C)B1OCCNCCO1 (stereo not drawn) [Boc--Gly--Boroleu--diethanolamine, Boc-Gly-Boroleu-diethanolamine]
% Activity (porcine pepsin): 90%

Compound: CC(C)CC(NC(=O)CNC(=O)OC(C)(C)C)B1OC(C)(C)C(C)(C)O1 (stereo not drawn) [Boc--Gly--Boroleu--pinacol, Boc-Gly-Boroleu-pinacol]
% Activity (porcine pepsin): 87%

Compound: CC(C)CC(NC(=O)CNC(=O)C(Cc1ccccc1)NC(=O)OC(C)(C)C)B1OCCNCCO1 (stereo not shown) [Boc--Phe--Gly--Boroleu--diethanolamine, Boc-PheGly-Boroleu-diethanolamine]
% Activity (porcine pepsin): 71%

Compound: CC(C)CC(NC(=O)CNC(=O)C(Cc1ccccc1)NC(=O)OC(C)(C)C)B1OC(C)(C)C(C)(C)O1 (stereo not shown) [Boc--Phe--Gly--Boroleu--pinacol, Boc-PheGly-Boroleu-pinacol]
% Activity (porcine pepsin): 68%

Compound: CC(C)C[C@H](NC(=O)CNC(=O)[C@@H](N)Cc1ccccc1)B1OC(C)(C)C(C)(C)O1.O=C(O)C(F)(F)F [H--Phe--Gly--Boroleu--pinacol, H-PheGly-Boroleu-pinacol.trifluoroacetate]
% Activity (porcine pepsin): 69%

Compound: CC(C)C(NC(=O)C(CCC(=O)O)NC(=O)CNC(=O)C(N)Cc1ccccc1)B(O)O (stereo not shown) [H--Phe--Gly--Glu--Boroval--OH]
% Initial Activity (neutrophil elastase; Conc. 2.0 × 10^-6 M): 54%

Compound: CC(C)C(NC(=O)C(CO)NC(=O)CNC(=O)C(N)Cc1ccccc1)B(O)O (stereo not shown) [H--Phe--Gly--Ser--Boroval--OH]
% Initial Activity (neutrophil elastase; Conc. 1.0 × 10^-6 M): 75%

Compound: CCC(C)C(NC(=O)C1CCCN1C(=O)C(C)NC(=O)C(C)NC(=O)CCC(=O)OC)B(O)O (stereo not shown) [MeOSuc--Ala--Ala--Pro--Boroile--OH]
% Initial Activity (neutrophil elastase; Conc. 1.0 × 10^-7 M): 60% | k, first order rate constant for time-dependent inhibition (neutrophil elastase; Conc. 1.0 × 10^-7 M): 0.28 min⁻¹

Compound: COC(=O)CCC(=O)NC(CCCCNC(=O)OCc1ccccc1)C(=O)NC(C)C(=O)N1CCCC1C(=O)NC(B(O)O)C(C)C (stereo not shown) [MeOSuc--Lys(Z)--Ala--Pro--Boroval--OH, MeOSuc--Lys(Z)--AlaPro--Boroval--OH]
% Initial Activity (neutrophil elastase; Conc. 5.0 × 10^-8 M): 59% | k, first order rate constant for time-dependent inhibition (neutrophil elastase; Conc. 5.0 × 10^-8 M): 0.54 min⁻¹

Compound: COC(=O)CCC(=O)NC(Cc1ccccc1)C(=O)NCC(=O)NC(CCC(=O)O)C(=O)NC(B(O)O)C(C)C (stereo not shown) [MeOSuc--Phe--Gly--Glu--Boroval--OH]
% Initial Activity (neutrophil elastase; Conc. 1.0 × 10^-6 M): 52% | k, first order rate constant for time-dependent inhibition (neutrophil elastase; Conc. 1.0 × 10^-6 M): 0.18 min⁻¹

Compound: COC(=O)CCC(=O)N[C@@H](Cc1ccccc1)C(=O)NCC(=O)N[C@@H](CO)C(=O)NC(B(O)O)C(C)C (stereo partly shown) [MeOSuc--Phe--Gly--Ser--Boroval--OH]
% Initial Activity (neutrophil elastase; Conc. 5.0 × 10^-7 M): 78% | k, first order rate constant for time-dependent inhibition (neutrophil elastase; Conc. 5.0 × 10^-7 M): 0.26 min⁻¹

Compound: COC(=O)CCC(=O)N[C@@H](C)C(=O)N[C@@H](C)C(=O)N1CCC[C@H]1C(=O)NC(C)B1OCCNCCO1 (stereo partly shown) [MeOSuc-AlaAlaPro-Boroala-diethanolamine]
capacity for inhibition of pancreatic elastase, crystalline versus amorphous sample ([1]; crystalline sample relative to amorphous sample of Example 9): at least 5 fold
